Assay results from paper PMC4421842 (Nature Communications, 2015).
≈ marks a conversion by molar mass, not a printed value. Where “and” joins values, the source holds several entries; their conditions need not be identical. Identical values can stand only once. Entries after “also recorded” stand apart in the source; their conditions may differ. Like-named read-outs stand apart in the source and are kept apart here.

Key:
[1] = tested on: WT S. aureus (ATCC 29213, WT); test: microbe, parasite or virus in culture; format: cell-based; settings: WT GyrA and WT ParC, three independent replicates
MRSA clinical isolates = test: microbe, parasite or virus in culture; format: cell-based, S. aureus; settings: for MIC: Staphylococcus aureus, MRSA, read-out: MIC
Method in brief: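 Broth microdilution per CLSI guidelines in Mueller Hinton broth, run in triplicate against clinical MRSA isolates.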

E. faecalis = test: microbe, parasite or virus in culture; format: cell-based; settings: Enterococcus faecalis, E. faecalis
E. faecium = test: microbe, parasite or virus in culture; format: cell-based; settings: Enterococcus faecium, E. faecium
Ent. Spp. = test: MIC, microdilution broth, Ent. Spp. VRE clinical isolate; format: cell-based; settings: Enterococcus, C28036, gyrA Ser83Ile, parC Ser80Ile
Excerpt: (§1) MRSA and P. aeruginosa isolates were from Cubist Pharmaceuticals (Lexington, MA). VRE isolates were from a previously published collection. E. coli strains were obtained either from ATCC or Professor Cari Vanderpool (UIUC). A. baumannii isolates were obtained from Dr John Quale[51].
(§2) Mueller Hinton (MH) broth was used.

VRE clinical isolates = test: MIC, VRE clinical isolates panel (summary by GyrA mutation); format: cell-based, Enterococcus; settings: panel of VRE clinical isolates (n=22)
Excerpt: as §1, §2

E. coli = test: microbe, parasite or virus in culture; format: cell-based; settings: Escherichia coli
Excerpt: as §1, §2

P. aeruginosa = test: MIC, microdilution broth, P. aeruginosa; format: cell-based
Excerpt: as §1, §2

A. baumannii = test: MIC, microdilution broth, A. baumannii; format: cell-based; settings: Acinetobacter baumannii
Excerpt: as §1, §2

WT E. coli DNA gyrase = target: T1, WT E. coli DNA gyrase (Escherichia coli, UniProt P0AES4+P0AES6); format: biochemical; settings: DNA cleavage assay
T1 construct: His tag (pTRCHisA vector; purified on Ni-NTA); made in house; host or cells: E. coli One Shot BL21 Star (DE3)

S83R E. coli DNA gyrase = target: T2, S83R E. coli DNA gyrase (Escherichia coli, UniProt P0AES4+P0AES6, S83R); format: biochemical; settings: DNA cleavage assay
T2 construct: His tag (pTRCHisA vector; purified on Ni-NTA); made in house; host or cells: E. coli One Shot BL21 Star (DE3)

[2] = tested on: resistant strains of ATCC 29213; test: microbe, parasite or virus in culture; format: cell-based, S. aureus
S. aureus (ATCC 29213) = test: Resistant mutant generation (resistance frequency); format: cell-based; settings: low-level CIP-resistant strain 29213-C1
[3] = Pharmacokinetic assessment; format: in vivo, C57BL/6 mice; settings: for Cmax: read-out: Cmax (peak serum concentration)
Protocol: (§3) The animal studies (PK, in-vivo toxicity and in-vivo efficacy) were carried out in strict accordance with the recommendations in the Guide for the Care and Use of Laboratory Animals of the National Institutes of Health. […] In these studies, 10- to 12-week-old female C57BL/6 mice purchased from Charles River were used. DNM, DNM-2 and DNM-3 were formulated as slurries at 8.3 mg ml^−1 in 25% Cremophor RH40/water (v/v). Before beginning the pharmacokinetic assessment, mice were first tested for their ability to tolerate the DNM, DNM-2 and DNM-3 at 50 mg kg^−1 (p.o.). […] At specified time points, mice were killed and blood was collected, centrifuged and the serum was frozen at −80 °C until analysis. The proteins in a 50-μl aliquot of serum were precipitated by the addition of 50 μl of acetonitrile and the sample was centrifuged to remove the proteins. Serum concentrations of DNM, DNM-2 and DNM-3 were determined by HPLC. PK parameters were determined using GraphPad Prism Version 5.00 for Windows.

[4] = Tolerability in mice (maximal tolerated dose); format: in vivo
Protocol: as §3

physchem = settings: pH 7.4
Protocol: Three independent replicates of each compound were performed.

FQR MRSA (NRS3) = test: In-vivo efficacy, mouse sepsis model; settings: 50 mg kg^−1 oral gavage once daily for 10 days; n=15; Kaplan–Meier, log rank survival test
[5] = female, C57BL/6, mouse, in vivo, C57/BL6 mice, 50 mg kg-1 oral gavage, serum

In the case of `CCn1c(=O)cc(C)c2cc3c(C)cc(=O)n4c3c(c21)OC4` [DNM-2], the “MIC against S. aureus 29213” value ([1]; ATCC 29213) is reported as 8 µg/mL (≈ 27 µM), the MIC ([1]; Staphylococcus aureus, ATCC29213, ATCC 29213, read-out: MIC against S. aureus 29213) is reported as 8 µg/mL (≈ 27 µM) and the MIC (MRSA clinical isolates; strain SAU.1118) is reported as 2 µg/mL (≈ 6.75 µM). The MIC (MRSA clinical isolates; strain SAU.2996) was 0.5 µg/mL (≈ 1.69 µM), the MIC (MRSA clinical isolates; strain SAU.3017) was 4 µg/mL (≈ 13.5 µM) and the MIC (MRSA clinical isolates; strain SAU.3021) was 0.063 µg/mL (≈ 0.213 µM). It also gave an MIC (MRSA clinical isolates; strain SAU.3024) of 0.125 µg/mL (≈ 0.422 µM), an MIC (MRSA clinical isolates; strain SAU.3025) of 0.063 µg/mL (≈ 0.213 µM) and an MIC (MRSA clinical isolates; strain SAU.42) of 2 µg/mL (≈ 6.75 µM). For the same compound, the MIC (MRSA clinical isolates; strain SAU.555) was 0.25 µg/mL (≈ 0.844 µM), the MIC (MRSA clinical isolates; strain SAU.669) was 0.063 µg/mL (≈ 0.213 µM) and the MIC (MRSA clinical isolates; strain SAU.846) was 0.25 µg/mL (≈ 0.844 µM). For the same compound, the “Sensitivity of MRSA clinical isolates” value (MRSA clinical isolates; panel of MRSA clinical isolates (n=21)) was “sensitive”, the MIC (E. faecalis; ATCC19433, ATCC 19433, gyrA WT, parC WT) was 8 µg/mL (≈ 27 µM) and the MIC (E. faecalis; ATCC29212, ATCC 29212, gyrA WT, parC WT) was 8 µg/mL (≈ 27 µM). The MIC (E. faecalis; C21667, gyrA Ser83Ile, parC Ser80Ile) was 0.5 µg/mL (≈ 1.69 µM), the MIC (E. faecalis; S206, gyrA Ser83 Arg, parC Ser80Ile) was 2 µg/mL (≈ 6.75 µM) and the MIC (E. faecium; C21190, gyrA Ser83 Arg, parC Ser80Ile) was 8 µg/mL (≈ 27 µM). For the same compound, the MIC (E. faecium; C27282, gyrA Ser83 Arg, parC Ser80Arg) was 4 µg/mL (≈ 13.5 µM), the MIC (E. faecium; C27569, gyrA Ser83Ile, parC Ser80Ile) was 0.25 µg/mL (≈ 0.844 µM) and the MIC (E. faecium; D1, gyrA Ser83Ile, parC Ser80Ile) was 0.5 µg/mL (≈ 1.69 µM). For the same compound, the MIC (E. faecium; S34, gyrA Ser83Ile, parC Ser80 Arg) was 1 µg/mL (≈ 3.37 µM), the MIC (E. faecium; S51, gyrA Ser83Ile, parC Ser80Ile) was 0.5 µg/mL (≈ 1.69 µM) and the MIC (E. faecium; S122, gyrA Ser83Ile, parC Ser80Ile) was 0.5 µg/mL (≈ 1.69 µM). It also gave an MIC (E. faecium; S226, gyrA Ser83Ile, parC Ser80Ile) of 0.5 µg/mL (≈ 1.69 µM), an MIC (E. faecium; S235, gyrA Ser83Ile, parC Ser80Ile) of 0.5 µg/mL (≈ 1.69 µM) and an MIC (E. faecium; S344, gyrA Ser83Ile, parC Ser80Ile) of 0.5 µg/mL (≈ 1.69 µM). For the same compound, the MIC (E. faecium; S557, gyrA Ser83Ile, parC Ser80Ile) was 0.25 µg/mL (≈ 0.844 µM), the MIC (E. faecium; SL152, gyrA Ser83Ile, parC Ser80Ile) was 0.5 µg/mL (≈ 1.69 µM) and the MIC (E. faecium; U63, gyrA Ser83 Arg, parC Ser80Ile) was 4 µg/mL (≈ 13.5 µM). For the same compound, the MIC (E. faecium; U275, gyrA Ser83Cys Glu87Gly, parC Ser80Ile) was 2 µg/mL (≈ 6.75 µM), the MIC (E. faecium; U464, gyrA Ser83 Arg, parC Ser80Ile) was 2 µg/mL (≈ 6.75 µM) and the MIC (E. faecium; U503, gyrA Ser83 Arg, parC Ser80Ile) was 4 µg/mL (≈ 13.5 µM). For the same compound, the MIC (E. faecium; U563, gyrA Ser83 Arg, parC Ser80Ile) was 2 µg/mL (≈ 6.75 µM), the MIC (Ent. Spp.) was 0.5 µg/mL (≈ 1.69 µM) and the “Sensitivity of VRE clinical isolates” value (VRE clinical isolates) was “sensitive”. It also gave an MIC (E. coli; ATCC25922, E. coli ATCC 25922, gyrA none, parC none) of over 24 µg/mL, an MIC (E. coli; MG1655, E. coli MG1655) of over 24 µg/mL and an MIC (E. coli; MG1655, E. coli MG1655 ∆AcrB (permeabilized strain)) of 2 µg/mL (≈ 6.75 µM). It also gave an MIC (P. aeruginosa; PA1586 (CIP resistant clinical isolate)) of over 24 µg/mL, an MIC (P. aeruginosa; Pseudomonas aeruginosa, P. aeruginosa PAO1, read-out: MIC) of over 24 µg/mL and an MIC (P. aeruginosa; Pseudomonas aeruginosa, read-out: MIC) of over 24 µg/mL. For the same compound, the MIC (A. baumannii) was over 24 µg/mL, the MIC (A. baumannii; ATCC19606, A. baumannii ATCC 19606, read-out: MIC) was over 24 µg/mL and the “inhibition of WT DNA gyrase (increase in L or OC DNA)” value (WT E. coli DNA gyrase) was “poor inhibitors of WT DNA gyrase”. For the same compound, the “inhibition of S83R DNA gyrase” value (S83R E. coli DNA gyrase) was “buildup of OC DNA similar to that seen with S83L DNA gyrase only at a slightly higher concentration or longer time points”, the MIC ([2]; Staphylococcus aureus, ATCC29213, high-level CIP-resistant strains, second step, S84L mutation in GyrA) was 0.06 to 0.12 µg/mL (≈ 0.202 to 0.405 µM) and the MIC ([2]; low-level CIP-resistant strains, first step, WT gyrA, mutation in ParC (for example E84K or S80F)) was “not sensitive”. The “resistant colonies on treatment” value (S. aureus (ATCC 29213)) was “resistant colonies were observed”, the AUC [3, 5] was 44000 ng·h/mL and the Tmax [3, 5] was 1.2 h. For the same compound, the half-life [3, 5] was 0.9 h, the Cmax ([3]; female, C57BL/6, mouse, in vivo, mice, 50 mg kg^−1 oral dose, serum) was 42.6 µM and the Cmax ([3]; female, C57BL/6, mouse, mice, 50 mg kg^−1 oral dose, serum) was 12800 ng/mL and ~50 µM. For the same compound, the “oral bioavailability / serum exposure” value ([3]; mice, 50 mg kg^−1 oral dose) was “good bioavailability”, the “area under the curve” value ([3]; mice, 50 mg kg^−1 oral dose, serum) was 44000 ng·h/mL and the tolerability ([4]; increasing doses, highest dose evaluated 50 mg kg^−1 by oral gavage) was “well tolerated up to the highest dose evaluated”. The maximal tolerated dose ([4]; oral gavage) was over 50 mg/kg, the solubility at 1 h (physchem) was 121 µM (≈ 35.9 µg/mL) and the “survival of mice infected with MRSA (NRS3, FQR)” value (FQR MRSA (NRS3)) was “***P<0.005 versus vehicle and CIP; also recorded: significant survival difference relative to both CIP and vehicle-treated control; also recorded: effective in treating mice infected with MRSA”.
